Source: ChEMBL document CHEMBL3885861, “Open TG-GATES”

Species: Rattus norvegicus
Test: Open TG-GATES - Regimen: Single
Format: toxicity, organism-based, Sprague-Dawley
Parameters: regimen Single, gender Male, age 6 weeks
Conditions: in vivo, po, route gavage; for WBC / APTT / Bas / Eos / Fbg / Hb / Ht / Lym / MCH / MCHC / MCV / Mono / Neu / PT / Plat / RBC / Ret: tissue Blood; for KIDNEY_L / KIDNEY_R / KIDNEY_TOTAL: tissue Kidney; for LIVER: tissue Liver; for A/G / ALP / ALT / AST / BUN / CRE / Ca / Cl / DBIL / GLC / IP / K / LDH / Na / PL / RALB / TBIL / TC / TG / TP / gamma-GTP: tissue Plasma
[1] = 2 mg/kg, 9 h, dose level Middle
[2] = 2 mg/kg, 24 h, dose level Middle

Compound: COc1ccc2c(c1)c(CC(=O)O)c(C)n2C(=O)c1ccc(Cl)cc1 [INDOMETHACIN]
- WBC [1]: 114.3 x10_2/uL
- KIDNEY_L [1]: 0.9 g
- KIDNEY_R [1]: 0.9 g
- KIDNEY_TOTAL [1]: 1.8 g
- LIVER [1]: 8.3 g
- A/G [1]: 2.7
- ALP [1]: 944 IU/L
- ALT [1]: 35.2 IU/L
- AST [1]: 65.6 IU/L
- BUN [1]: 14.2 mg/dL
- CRE [1]: 0.5 mg/dL
- Ca [1]: 10.2 mg/dL
- Cl [1]: 106.8 meq/L
- DBIL [1]: 0.01 mg/dL
- GLC [1]: 199.6 mg/dL
- IP [1]: 10.5 mg/dL
- K [1]: 5 meq/L
- LDH [1]: 80.8 IU/L
- Na [1]: 138.2 meq/L
- PL [1]: 125.8 mg/dL
- RALB [1]: 3.9 g/dL
- TBIL [1]: 0.5 mg/dL
- TC [1]: 72.2 mg/dL
- TG [1]: 35.4 mg/dL
- TP [1]: 5.3 g/dL
- gamma-GTP [1]: 1.8 IU/L
- TERMINAL_BW [2]: 209.2 g
- APTT [2]: 16.1 s
- Bas [2]: 0%
- Eos [2]: 0.8%
- Fbg [2]: 204.6 mg/dL
- Hb [2]: 13.4 g/dL
- Ht [2]: 40.7%
- Lym [2]: 80.6%
- MCH [2]: 21.5 pg
- MCHC [2]: 33%
- MCV [2]: 65 fL
- Mono [2]: 8.8%
- Neu [2]: 10.2%
- PT [2]: 12.1 s
- Plat [2]: 96.4 x10_4/uL
- RBC [2]: 626.8 x10_4/ul
- Ret [2]: 8.6%
- WBC [2]: 112.4 x10_2/uL
- KIDNEY_L [2]: 0.9 g
- KIDNEY_R [2]: 0.9 g
- KIDNEY_TOTAL [2]: 1.9 g
- LIVER [2]: 10.1 g
- A/G [2]: 2.4
- ALP [2]: 1232.8 IU/L
- ALT [2]: 38.2 IU/L
- AST [2]: 70.6 IU/L
- BUN [2]: 16.4 mg/dL
- CRE [2]: 0.5 mg/dL
- Ca [2]: 10.4 mg/dL
- Cl [2]: 106.4 meq/L
- DBIL [2]: 0.004 mg/dL
- GLC [2]: 195.4 mg/dL
- IP [2]: 8.1 mg/dL
- K [2]: 4.9 meq/L
- LDH [2]: 83.6 IU/L
- Na [2]: 138.4 meq/L
- PL [2]: 140.6 mg/dL
- RALB [2]: 3.9 g/dL
- TBIL [2]: 0.3 mg/dL
- TC [2]: 75.4 mg/dL
- TG [2]: 95.2 mg/dL
- TP [2]: 5.6 g/dL
- gamma-GTP [2]: 1.4 IU/L
- TERMINAL_BW (5 mg/kg, 3 h, dose level High): 201.4 g
- TERMINAL_BW (5 mg/kg, 3 h, dose level Low): 224.1 g
- APTT (5 mg/kg, 3 h, dose level High): 16.5 s
- Bas (5 mg/kg, 3 h, dose level High): 0%
- Eos (5 mg/kg, 3 h, dose level High): 0.2%
- Fbg (5 mg/kg, 3 h, dose level High): 211 mg/dL
- Hb (5 mg/kg, 3 h, dose level High): 13.6 g/dL
- Ht (5 mg/kg, 3 h, dose level High): 41.1%
- Lym (5 mg/kg, 3 h, dose level High): 78.4%
- MCH (5 mg/kg, 3 h, dose level High): 21.5 pg
- MCHC (5 mg/kg, 3 h, dose level High): 33.3%
- MCV (5 mg/kg, 3 h, dose level High): 64.8 fL
- Mono (5 mg/kg, 3 h, dose level High): 9%
- Neu (5 mg/kg, 3 h, dose level High): 12.4%
- PT (5 mg/kg, 3 h, dose level High): 12.5 s
- Plat (5 mg/kg, 3 h, dose level High): 108.6 x10_4/uL
- RBC (5 mg/kg, 3 h, dose level High): 634.6 x10_4/ul
- Ret (5 mg/kg, 3 h, dose level High): 8.9%
- WBC (5 mg/kg, 3 h, dose level High): 130.2 x10_2/uL
- APTT (5 mg/kg, 3 h, dose level Low): 18.2 s
- Eos (5 mg/kg, 3 h, dose level Low): 0.8%
- Fbg (5 mg/kg, 3 h, dose level Low): 222.6 mg/dL
- Hb (5 mg/kg, 3 h, dose level Low): 13.9 g/dL
- Ht (5 mg/kg, 3 h, dose level Low): 38%
- Lym (5 mg/kg, 3 h, dose level Low): 79.4%
- MCH (5 mg/kg, 3 h, dose level Low): 22.1 pg
- MCHC (5 mg/kg, 3 h, dose level Low): 36.6%
- MCV (5 mg/kg, 3 h, dose level Low): 60.4 fL
- Mono (5 mg/kg, 3 h, dose level Low): 2.8%
- Neu (5 mg/kg, 3 h, dose level Low): 15.6%
- PT (5 mg/kg, 3 h, dose level Low): 11.7 s
- Plat (5 mg/kg, 3 h, dose level Low): 115.7 x10_4/uL
- RBC (5 mg/kg, 3 h, dose level Low): 629.4 x10_4/ul
- Ret (5 mg/kg, 3 h, dose level Low): 7.6%
- WBC (5 mg/kg, 3 h, dose level Low): 76.1 x10_2/uL
- KIDNEY_L (5 mg/kg, 3 h, dose level High): 0.9 g
- KIDNEY_R (5 mg/kg, 3 h, dose level High): 1 g
- KIDNEY_TOTAL (5 mg/kg, 3 h, dose level High): 1.9 g
- KIDNEY_L (5 mg/kg, 3 h, dose level Low): 1 g
- KIDNEY_TOTAL (5 mg/kg, 3 h, dose level Low): 2.1 g
- LIVER (5 mg/kg, 3 h, dose level High): 9.2 g
- LIVER (5 mg/kg, 3 h, dose level Low): 9.6 g
- A/G (5 mg/kg, 3 h, dose level High): 1.5
- ALP (5 mg/kg, 3 h, dose level High): 1085.6 IU/L
- ALT (5 mg/kg, 3 h, dose level High): 42.6 IU/L
- AST (5 mg/kg, 3 h, dose level High): 70.2 IU/L
- BUN (5 mg/kg, 3 h, dose level High): 11 mg/dL
- CRE (5 mg/kg, 3 h, dose level High): 0.4 mg/dL
- Ca (5 mg/kg, 3 h, dose level High): 10.5 mg/dL
- Cl (5 mg/kg, 3 h, dose level High): 105.2 meq/L
- DBIL (5 mg/kg, 3 h, dose level High): 0.034 mg/dL
- GLC (5 mg/kg, 3 h, dose level High): 191 mg/dL
- IP (5 mg/kg, 3 h, dose level High): 9.5 mg/dL
- K (5 mg/kg, 3 h, dose level High): 5 meq/L
- LDH (5 mg/kg, 3 h, dose level High): 172 IU/L
- Na (5 mg/kg, 3 h, dose level High): 137 meq/L
- PL (5 mg/kg, 3 h, dose level High): 126.2 mg/dL
- RALB (5 mg/kg, 3 h, dose level High): 3.6 g/dL
- TBIL (5 mg/kg, 3 h, dose level High): 0.3 mg/dL
- TC (5 mg/kg, 3 h, dose level High): 71.8 mg/dL
- TG (5 mg/kg, 3 h, dose level High): 55 mg/dL
- TP (5 mg/kg, 3 h, dose level High): 6.1 g/dL
- gamma-GTP (5 mg/kg, 3 h, dose level High): 1.2 IU/L
- A/G (5 mg/kg, 3 h, dose level Low): 1.6
- ALP (5 mg/kg, 3 h, dose level Low): 872.4 IU/L
- ALT (5 mg/kg, 3 h, dose level Low): 37.8 IU/L
- AST (5 mg/kg, 3 h, dose level Low): 76.4 IU/L
- BUN (5 mg/kg, 3 h, dose level Low): 10.8 mg/dL
- Cl (5 mg/kg, 3 h, dose level Low): 103 meq/L
- DBIL (5 mg/kg, 3 h, dose level Low): 0.068 mg/dL
- GLC (5 mg/kg, 3 h, dose level Low): 187.6 mg/dL
- IP (5 mg/kg, 3 h, dose level Low): 9.3 mg/dL
- K (5 mg/kg, 3 h, dose level Low): 4.2 meq/L
- LDH (5 mg/kg, 3 h, dose level Low): 213 IU/L
- Na (5 mg/kg, 3 h, dose level Low): 140.8 meq/L
- PL (5 mg/kg, 3 h, dose level Low): 145.6 mg/dL
- RALB (5 mg/kg, 3 h, dose level Low): 3.3 g/dL
- TBIL (5 mg/kg, 3 h, dose level Low): 0.1 mg/dL
- TC (5 mg/kg, 3 h, dose level Low): 85.4 mg/dL
